{"source": "ChEMBL document CHEMBL5696441", "about": "(Nat Chem Biol, 2011)", "key": {"[1]": {"system": "Epidermal growth factor receptor (Homo sapiens), P00533 [UNDEFINED MUTATION]", "sequence (P00533 whole entry, looked up, stated change not applied)": "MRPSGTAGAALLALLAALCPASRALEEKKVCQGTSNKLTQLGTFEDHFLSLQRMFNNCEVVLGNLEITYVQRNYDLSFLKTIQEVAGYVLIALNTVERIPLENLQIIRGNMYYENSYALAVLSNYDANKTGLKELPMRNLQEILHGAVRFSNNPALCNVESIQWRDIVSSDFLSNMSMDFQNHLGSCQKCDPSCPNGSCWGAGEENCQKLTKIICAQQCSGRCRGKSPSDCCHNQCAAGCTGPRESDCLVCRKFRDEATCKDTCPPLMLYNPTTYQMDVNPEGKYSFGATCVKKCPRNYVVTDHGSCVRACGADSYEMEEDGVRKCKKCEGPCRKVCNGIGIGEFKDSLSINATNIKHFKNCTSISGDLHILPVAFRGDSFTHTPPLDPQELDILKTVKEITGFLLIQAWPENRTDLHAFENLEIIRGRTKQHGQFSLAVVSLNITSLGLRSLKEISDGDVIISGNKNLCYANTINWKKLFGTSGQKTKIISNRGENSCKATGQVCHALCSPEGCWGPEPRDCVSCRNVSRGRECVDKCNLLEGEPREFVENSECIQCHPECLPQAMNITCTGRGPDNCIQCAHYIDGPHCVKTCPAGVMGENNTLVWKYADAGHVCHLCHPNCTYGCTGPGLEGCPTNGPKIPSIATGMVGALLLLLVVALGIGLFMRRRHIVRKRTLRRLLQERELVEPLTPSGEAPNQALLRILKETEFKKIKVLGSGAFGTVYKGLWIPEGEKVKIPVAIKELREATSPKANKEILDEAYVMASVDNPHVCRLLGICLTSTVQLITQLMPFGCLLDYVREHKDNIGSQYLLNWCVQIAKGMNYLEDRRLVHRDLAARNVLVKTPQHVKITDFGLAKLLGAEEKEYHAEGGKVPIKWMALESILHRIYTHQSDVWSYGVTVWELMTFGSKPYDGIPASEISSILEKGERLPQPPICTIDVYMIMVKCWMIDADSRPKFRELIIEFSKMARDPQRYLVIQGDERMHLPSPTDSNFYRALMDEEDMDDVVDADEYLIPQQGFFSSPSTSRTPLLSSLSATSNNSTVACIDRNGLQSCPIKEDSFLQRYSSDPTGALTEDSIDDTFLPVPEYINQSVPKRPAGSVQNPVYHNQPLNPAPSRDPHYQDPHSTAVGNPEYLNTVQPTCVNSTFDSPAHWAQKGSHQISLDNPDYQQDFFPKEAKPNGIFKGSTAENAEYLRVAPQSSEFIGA", "experiment": "Inhibition of human EGFR d747-749/A750P mutant assessed as residual activity at 1 uM using PolyEY as substrate in presence of 33P-ATP by ProQinase assay relative to control"}, "[2]": {"target": "Insulin receptor (Homo sapiens) (UniProt P06213)", "experiment": "Inhibition of human INSR assessed as residual activity at 1 uM using poly(Ala,Glu,Lys,Tyr)6:2:5:1 as substrate in presence of 33P-ATP by ProQinase assay relative to control"}, "[3]": {"target": "Tyrosine-protein kinase HCK (Homo sapiens) (UniProt P08631)", "sequence (P08631 2-526 limits assumed)": "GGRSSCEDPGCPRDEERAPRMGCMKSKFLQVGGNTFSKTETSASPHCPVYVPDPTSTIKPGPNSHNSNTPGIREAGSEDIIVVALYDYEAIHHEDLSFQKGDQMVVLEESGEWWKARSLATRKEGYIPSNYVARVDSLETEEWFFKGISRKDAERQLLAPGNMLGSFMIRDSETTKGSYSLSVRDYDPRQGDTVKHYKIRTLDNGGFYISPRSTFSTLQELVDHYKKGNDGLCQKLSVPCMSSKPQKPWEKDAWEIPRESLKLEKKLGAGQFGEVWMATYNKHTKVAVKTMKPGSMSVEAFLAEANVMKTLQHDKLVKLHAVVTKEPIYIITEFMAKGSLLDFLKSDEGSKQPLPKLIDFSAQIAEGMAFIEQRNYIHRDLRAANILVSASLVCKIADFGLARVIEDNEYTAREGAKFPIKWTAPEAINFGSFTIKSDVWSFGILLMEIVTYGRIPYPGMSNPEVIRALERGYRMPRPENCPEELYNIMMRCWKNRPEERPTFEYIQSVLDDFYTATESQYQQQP", "experiment": "Inhibition of human HCK assessed as residual activity at 1 uM using polyEY as substrate in presence of 33P-ATP by ProQinase assay relative to control"}, "[4]": {"target": "Inhibitor of nuclear factor kappa-B kinase subunit epsilon (Homo sapiens) (UniProt Q14164)", "sequence (Q14164 whole entry)": "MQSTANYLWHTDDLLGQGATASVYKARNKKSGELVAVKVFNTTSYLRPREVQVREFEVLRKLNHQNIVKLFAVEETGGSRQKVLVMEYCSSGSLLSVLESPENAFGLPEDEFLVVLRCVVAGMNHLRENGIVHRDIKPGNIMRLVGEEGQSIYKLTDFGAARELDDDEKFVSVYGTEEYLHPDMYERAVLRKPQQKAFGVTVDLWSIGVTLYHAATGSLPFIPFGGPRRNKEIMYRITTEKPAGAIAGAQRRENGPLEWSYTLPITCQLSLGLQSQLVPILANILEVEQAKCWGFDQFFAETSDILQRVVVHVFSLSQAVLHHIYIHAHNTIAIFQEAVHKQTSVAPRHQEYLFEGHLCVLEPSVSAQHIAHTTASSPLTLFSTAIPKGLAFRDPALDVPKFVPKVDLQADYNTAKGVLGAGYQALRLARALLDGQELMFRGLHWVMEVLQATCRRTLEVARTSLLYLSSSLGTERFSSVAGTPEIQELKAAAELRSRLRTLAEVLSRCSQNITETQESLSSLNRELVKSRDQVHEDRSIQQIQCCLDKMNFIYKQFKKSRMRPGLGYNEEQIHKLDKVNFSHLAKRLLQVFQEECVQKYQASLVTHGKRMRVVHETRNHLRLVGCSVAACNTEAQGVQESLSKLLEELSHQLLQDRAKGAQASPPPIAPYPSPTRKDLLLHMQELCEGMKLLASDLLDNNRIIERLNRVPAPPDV", "experiment": "Inhibition of IKK-epsilon (unknown origin) assessed as remaining activity at 1 uM by Kinome scan method relative to control"}, "[5]": {"system": "Tyrosine-protein kinase ABL1 (Homo sapiens), P00519 [H396P]", "experiment": "Inhibition of ABL1 H396P mutant (unknown origin) assessed as remaining activity at 1 uM by Kinome scan method relative to control"}, "[6]": {"target": "Mitogen-activated protein kinase kinase kinase 8 (Homo sapiens) (UniProt P41279)", "sequence (P41279 whole entry)": "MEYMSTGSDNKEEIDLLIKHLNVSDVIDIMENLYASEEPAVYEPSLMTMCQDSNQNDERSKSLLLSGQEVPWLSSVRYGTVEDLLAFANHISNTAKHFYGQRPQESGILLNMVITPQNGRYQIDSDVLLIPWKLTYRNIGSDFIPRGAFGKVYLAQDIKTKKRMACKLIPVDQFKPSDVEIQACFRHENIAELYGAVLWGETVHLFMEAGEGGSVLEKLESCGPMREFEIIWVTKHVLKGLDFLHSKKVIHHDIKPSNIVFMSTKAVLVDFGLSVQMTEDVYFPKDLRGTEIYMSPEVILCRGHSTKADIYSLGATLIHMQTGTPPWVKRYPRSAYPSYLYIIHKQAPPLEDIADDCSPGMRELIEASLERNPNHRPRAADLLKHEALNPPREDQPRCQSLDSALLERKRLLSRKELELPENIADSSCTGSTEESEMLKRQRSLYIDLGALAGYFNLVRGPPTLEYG", "experiment": "Inhibition of human COT assessed as residual activity at 1 uM using RBER-CHKtide as substrate in presence of 33P-ATP by ProQinase assay relative to control"}, "[7]": {"target": "Mitogen-activated protein kinase 10 (Homo sapiens) (UniProt P53779)", "sequence (P53779 whole entry)": "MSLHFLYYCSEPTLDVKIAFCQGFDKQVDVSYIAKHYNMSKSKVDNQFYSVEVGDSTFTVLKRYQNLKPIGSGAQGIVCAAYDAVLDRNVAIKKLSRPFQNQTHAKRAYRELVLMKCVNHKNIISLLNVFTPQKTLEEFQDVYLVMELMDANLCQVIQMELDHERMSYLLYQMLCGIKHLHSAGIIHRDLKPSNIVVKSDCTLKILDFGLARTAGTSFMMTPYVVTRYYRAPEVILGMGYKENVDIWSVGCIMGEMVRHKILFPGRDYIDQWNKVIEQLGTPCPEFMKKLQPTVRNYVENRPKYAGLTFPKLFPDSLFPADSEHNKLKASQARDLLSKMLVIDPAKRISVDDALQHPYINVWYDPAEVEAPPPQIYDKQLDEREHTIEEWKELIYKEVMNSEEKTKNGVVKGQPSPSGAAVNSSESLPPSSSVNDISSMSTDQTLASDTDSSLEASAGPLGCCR", "experiment": "Inhibition of human JNK3 assessed as residual activity at 1 uM using ATF2 as substrate in presence of 33P-ATP by ProQinase assay relative to control"}, "[8]": {"system": "Proto-oncogene tyrosine-protein kinase receptor Ret (Homo sapiens), P07949 [V804M]", "experiment": "Inhibition of RET V804M (unknown origin) assessed as remaining activity at 1 uM by Kinome scan method relative to control"}, "[9]": {"target": "Ribosomal protein S6 kinase beta-1 (Homo sapiens) (UniProt P23443)", "sequence (P23443 whole entry, looked up)": "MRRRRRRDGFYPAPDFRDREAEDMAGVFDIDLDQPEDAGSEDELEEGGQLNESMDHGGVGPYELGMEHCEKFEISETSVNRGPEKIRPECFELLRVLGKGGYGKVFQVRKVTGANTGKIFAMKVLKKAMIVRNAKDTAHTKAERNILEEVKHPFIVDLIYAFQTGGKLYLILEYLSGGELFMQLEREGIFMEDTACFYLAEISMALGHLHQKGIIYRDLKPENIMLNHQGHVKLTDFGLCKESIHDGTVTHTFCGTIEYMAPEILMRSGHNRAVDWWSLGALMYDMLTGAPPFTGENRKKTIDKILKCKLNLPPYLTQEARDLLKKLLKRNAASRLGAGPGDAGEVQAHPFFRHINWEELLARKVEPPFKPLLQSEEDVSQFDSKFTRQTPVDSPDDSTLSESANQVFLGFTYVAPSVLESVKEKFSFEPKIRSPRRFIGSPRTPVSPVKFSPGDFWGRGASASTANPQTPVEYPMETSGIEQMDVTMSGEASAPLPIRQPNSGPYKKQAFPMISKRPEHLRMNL", "experiment": "Inhibition of human S6K1 assessed as residual activity at 1 uM using RBER-GSK3(14-27) as substrate in presence of 33P-ATP by ProQinase assay relative to control"}, "[10]": {"target": "Mitogen-activated protein kinase 3 (Homo sapiens) (UniProt P27361)", "experiment": "Inhibition of ERK1 (unknown origin) assessed as remaining activity at 1 uM by Kinome scan method relative to control"}, "[11]": {"target": "Ephrin type-A receptor 7 (Homo sapiens) (UniProt Q15375)", "sequence (Q15375 28-998 limits assumed)": "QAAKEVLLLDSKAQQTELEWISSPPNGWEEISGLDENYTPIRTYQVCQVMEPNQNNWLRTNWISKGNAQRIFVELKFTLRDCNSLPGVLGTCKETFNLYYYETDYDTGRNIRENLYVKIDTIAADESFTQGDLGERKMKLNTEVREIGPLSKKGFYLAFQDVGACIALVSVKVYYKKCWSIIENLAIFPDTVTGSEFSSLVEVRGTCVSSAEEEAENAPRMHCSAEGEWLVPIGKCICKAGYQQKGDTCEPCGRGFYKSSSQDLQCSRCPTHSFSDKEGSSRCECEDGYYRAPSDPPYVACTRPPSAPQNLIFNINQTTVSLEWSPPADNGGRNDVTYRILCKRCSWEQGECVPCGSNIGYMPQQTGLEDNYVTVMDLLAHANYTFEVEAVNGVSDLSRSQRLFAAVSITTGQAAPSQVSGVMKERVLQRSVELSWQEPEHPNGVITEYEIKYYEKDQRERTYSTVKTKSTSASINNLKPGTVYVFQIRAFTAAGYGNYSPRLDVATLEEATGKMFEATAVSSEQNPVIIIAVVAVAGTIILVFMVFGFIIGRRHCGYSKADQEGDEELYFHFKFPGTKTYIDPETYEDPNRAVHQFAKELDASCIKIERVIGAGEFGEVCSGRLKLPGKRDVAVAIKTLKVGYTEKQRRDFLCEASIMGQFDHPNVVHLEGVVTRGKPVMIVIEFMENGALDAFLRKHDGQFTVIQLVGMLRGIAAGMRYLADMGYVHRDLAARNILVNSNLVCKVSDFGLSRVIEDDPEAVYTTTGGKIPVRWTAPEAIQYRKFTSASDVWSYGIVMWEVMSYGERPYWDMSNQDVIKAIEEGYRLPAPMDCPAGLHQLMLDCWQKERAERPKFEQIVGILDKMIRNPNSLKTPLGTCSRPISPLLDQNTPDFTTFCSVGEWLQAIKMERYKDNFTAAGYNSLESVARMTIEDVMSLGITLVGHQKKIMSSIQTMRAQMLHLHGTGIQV", "experiment": "Inhibition of human EPHA7 assessed as residual activity at 1 uM using polyEy as substrate in presence of 33P-ATP by ProQinase assay relative to control"}, "[12]": {"target": "Calcium/calmodulin-dependent protein kinase type 1G (Homo sapiens) (UniProt Q96NX5)", "experiment": "Inhibition of CAMK1G (unknown origin) assessed as remaining activity at 1 uM by Kinome scan method relative to control"}, "[13]": {"experiment": "Anti-inflammatory activity against human derived medium respond PBMC cells assessed as inhibition in stimulated IL-1alpha cytokine release incubated for 2 hrs in the presence of LPS/SEB/aCD28 by Luminex based sandwich immunoassay", "type": "functional, cell-based"}, "[14]": {"target": "CDK9/cyclin T1 (Homo sapiens) (UniProt O60563+P50750)", "experiment": "Inhibition of human CDK9/CyclinT1 assessed as residual activity at 1 uM using RBER-CHKtide as substrate in presence of 33P-ATP by ProQinase assay relative to control", "type": "protein-complex assay"}, "[15]": {"target": "T1, Myotonin-protein kinase (Homo sapiens) (UniProt Q09013)", "T1 sequence (whole entry)": "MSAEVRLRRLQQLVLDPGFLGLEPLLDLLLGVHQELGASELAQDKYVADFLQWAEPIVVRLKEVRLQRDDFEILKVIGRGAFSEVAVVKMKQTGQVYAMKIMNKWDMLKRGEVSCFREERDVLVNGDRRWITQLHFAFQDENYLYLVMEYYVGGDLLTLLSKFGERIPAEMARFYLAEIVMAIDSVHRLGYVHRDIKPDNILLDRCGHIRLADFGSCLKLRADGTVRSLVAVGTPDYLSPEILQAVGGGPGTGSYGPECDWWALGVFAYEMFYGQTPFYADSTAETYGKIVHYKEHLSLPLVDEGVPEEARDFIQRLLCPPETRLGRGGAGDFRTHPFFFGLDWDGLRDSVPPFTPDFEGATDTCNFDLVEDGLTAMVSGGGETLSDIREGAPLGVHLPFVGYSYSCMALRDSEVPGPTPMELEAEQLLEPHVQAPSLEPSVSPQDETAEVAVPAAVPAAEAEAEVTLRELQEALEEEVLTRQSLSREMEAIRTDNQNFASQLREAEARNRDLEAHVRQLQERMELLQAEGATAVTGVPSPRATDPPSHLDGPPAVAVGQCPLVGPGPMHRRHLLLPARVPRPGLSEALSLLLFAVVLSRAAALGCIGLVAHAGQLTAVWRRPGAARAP", "experiment": "Inhibition of human DMPK assessed as residual activity at 1 uM using RBER-CHKtide as substrate in presence of 33P-ATP by ProQinase assay relative to control"}, "[16]": {"target": "T2, TGF-beta receptor type-1 (Homo sapiens) (UniProt P36897)", "T2 sequence (whole entry)": "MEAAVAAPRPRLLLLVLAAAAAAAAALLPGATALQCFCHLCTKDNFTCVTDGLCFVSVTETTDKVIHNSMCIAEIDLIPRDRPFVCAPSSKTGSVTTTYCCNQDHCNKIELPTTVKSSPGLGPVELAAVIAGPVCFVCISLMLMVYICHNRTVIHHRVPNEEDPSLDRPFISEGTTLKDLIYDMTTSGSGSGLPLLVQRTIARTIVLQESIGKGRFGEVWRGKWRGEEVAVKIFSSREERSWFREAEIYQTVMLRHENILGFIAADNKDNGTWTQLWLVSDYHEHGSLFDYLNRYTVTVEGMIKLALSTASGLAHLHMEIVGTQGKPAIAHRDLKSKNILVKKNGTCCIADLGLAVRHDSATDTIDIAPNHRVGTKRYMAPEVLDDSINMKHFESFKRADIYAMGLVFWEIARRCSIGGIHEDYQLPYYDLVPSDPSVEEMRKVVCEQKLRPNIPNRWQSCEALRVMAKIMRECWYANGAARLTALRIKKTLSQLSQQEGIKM", "experiment": "Inhibition of human TGFBR1 assessed as residual activity at 1 uM using RBER-GSK3(14-27) as substrate in presence of 33P-ATP by ProQinase assay relative to control"}, "[17]": {"system": "Proto-oncogene tyrosine-protein kinase receptor Ret (Homo sapiens), P07949 [V804L]", "experiment": "Inhibition of RET V804L (unknown origin) assessed as remaining activity at 1 uM by Kinome scan method relative to control"}, "[18]": {"target": "Cyclin-dependent kinase 2/cyclin E1 (Homo sapiens) (UniProt P24864+P24941)", "experiment": "Inhibition of human CDK2/CycE1 assessed as residual activity at 1 uM using RBER-CHKtide as substrate in presence of 33P-ATP by ProQinase assay relative to control", "type": "protein-complex assay"}}}
{"smiles": "O=C1c2ccc(Nc3ccc(F)cc3F)cc2CCc2ccc(OC[C@H](O)CO)cc21", "note": "[Skepinone-L]", "values": [{"measurement": "Activity", "setting": "[1]", "value": 96, "unit": "%"}, {"measurement": "Activity", "setting": "[2]", "value": 101, "unit": "%"}, {"measurement": "Activity", "setting": "[3]", "value": 98, "unit": "%"}, {"measurement": "Activity", "setting": "[4]", "value": 100, "unit": "%"}, {"measurement": "Activity", "setting": "[5]", "value": 100, "unit": "%"}, {"measurement": "Activity", "setting": "[6]", "value": 91, "unit": "%"}, {"measurement": "Activity", "setting": "[7]", "value": 33, "unit": "%"}, {"measurement": "Activity", "setting": "[8]", "value": 95, "unit": "%"}, {"measurement": "Activity", "setting": "[9]", "value": 85, "unit": "%"}, {"measurement": "Activity", "setting": "[10]", "value": 100, "unit": "%"}, {"measurement": "Activity", "setting": "[11]", "value": 109, "unit": "%"}, {"measurement": "Activity", "setting": "[12]", "value": 96, "unit": "%"}, {"measurement": "IC50", "setting": "[13]", "value": 370, "unit": "nM"}, {"measurement": "Activity", "setting": "[14]", "value": 103, "unit": "%"}, {"measurement": "Activity", "setting": "[15]", "value": 99, "unit": "%"}, {"measurement": "Activity", "setting": "[16]", "value": 93, "unit": "%"}, {"measurement": "Activity", "setting": "[17]", "value": 100, "unit": "%"}, {"measurement": "Activity", "setting": "[18]", "value": 85, "unit": "%"}]}
